Results reported in patent US9506926B2, “Molecular predictors of therapeutic response to specific anti-cancer agents” (The Regents of the University of California, priority 2011, dated 2016).
“Also recorded” adds a separate entry of the source.

Test system: breast cancer cell lines
Experiment: Cell growth inhibition assay (Cell Titer Glo, 72 h drug exposure, GI50) across a breast cancer cell line panel, with subtype, copy number and growth rate association analysis
Format: cell-based, human
Details: for Subtype specificity: Table 1, most sensitive cell line subtype, q<0.10 deemed significant; for Association of 17q12 (ERBB2) amplification with compound response / Association of 20q13 (STK15/AURKA) amplification with compound response: high amplification vs. low or no amplification, t-test; for Subtype-preferential activity in breast cancer cell lines (in words): running text and figure legends, response as −log10(GI50); for Response of the cell line panel as a whole: compounds excluded from further analysis; for Molecular Subtype in which the compound shows Preferential Activity: Table 7 summary; for Association of response with growth rate (doubling time): 2-way ANCOVA of cell line class and growth rate

CCN(CC)CCCCNc1ncc2cc(-c3cc(OC)cc(OC)c3)c(NC(=O)NC(C)(C)C)nc2n1 [PD173074]
Subtype specificity: Claudin-low

COc1cc2ncnc(Nc3ccc(F)c(Cl)c3)c2cc1OCCCN1CCOCC1 [Gefitinib]
Subtype specificity: ERBB2AMP | Association of 17q12 (ERBB2) amplification with compound response: associated with sensitivity

COc1cc([C@@H]2c3cc4c(cc3[C@@H](O[C@@H]3O[C@@H]5CO[C@@H](C)O[C@H]5[C@H](O)[C@H]3O)[C@H]3COC(=O)[C@H]23)OCO4)cc(OC)c1O [Etoposide]
Subtype specificity: Claudin-low | Subtype-preferential activity in breast cancer cell lines (in words): preferential activity in basal or claudin-low cell lines

NS(=O)(=O)c1ccc(Nc2nc(OCC3CCCCC3)c3[nH]cnc3n2)cc1 [NU6102]
Association of 17q12 (ERBB2) amplification with compound response: associated with resistance

COc1cc2ncnc(Nc3cccc(Cl)c3)c2cc1OC [AG1478]
Subtype specificity: ERBB2AMP

O=c1cc(-c2ccccc2)oc2cc(O)c(O)c(O)c12 [baicalein]
Response of the cell line panel as a whole: almost none of the cell lines in the panel responded strongly

Cc1cc(Nc2cc(N3CCN(C)CC3)nc(Sc3ccc(NC(=O)C4CC4)cc3)n2)n[nH]1 [VX-680]
Subtype specificity: not ERBB2AMP

O=C(CCCCCCC(=O)Nc1ccccc1)NO [Vorinostat]
Subtype specificity: Luminal | Molecular Subtype in which the compound shows Preferential Activity: Luminal (ER+/PR+) | Subtype-preferential activity in breast cancer cell lines (in words): preferentially active in luminal class cell lines

N.N.[Cl][Pt][Cl] [Cisplatin]
Subtype specificity: Basal/Claudin-low | Subtype-preferential activity in breast cancer cell lines (in words): basal cell line sensitivity; also recorded: preferential activity in basal or claudin-low cell lines

CC(/C=C/C(=O)NO)=C\[C@@H](C)C(=O)c1ccc(N(C)C)cc1 [Trichostatin A]
Subtype specificity: Luminal | Molecular Subtype in which the compound shows Preferential Activity: Luminal (ER+/PR+) | Subtype-preferential activity in breast cancer cell lines (in words): preferentially active in luminal class cell lines

C#Cc1cccc(Nc2ncnc3cc(OCCOC)c(OCCOC)cc23)c1 [Erlotinib]
Subtype specificity: Basal | Molecular Subtype in which the compound shows Preferential Activity: Basal (ER−/PR−/HER2−Claudin+) | Subtype-preferential activity in breast cancer cell lines (in words): preferentially active in basal class cell lines

CCNCCCNC/C=C\CNCCCNCC [CGC-11047]
Subtype specificity: Basal

CS(=O)(=O)CCNCc1ccc(-c2ccc3ncnc(Nc4ccc(OCc5cccc(F)c5)c(Cl)c4)c3c2)o1 [Lapatinib]
Subtype specificity: Luminal/ERBB2AMP

CO[C@H]1C[C@@H]2CC[C@@H](C)[C@@](O)(O2)C(=O)C(=O)N2CCCC[C@H]2C(=O)O[C@H]([C@H](C)C[C@@H]2CC[C@@H](OC(=O)C(C)(CO)CO)[C@H](OC)C2)CC(=O)[C@H](C)/C=C(\C)[C@@H](O)[C@@H](OC)C(=O)[C@H](C)C[C@H](C)/C=C/C=C/C=C/1C [Temsirolimus]
Subtype specificity: Luminal

COc1ncc(-c2ccc3nccc(-c4ccnnc4)c3c2)cc1NS(=O)(=O)c1ccc(F)cc1F [GSK2126458]
Subtype specificity: Luminal/ERBB2AMP

C=CCNC1=C2C[C@@H](C)C[C@H](OC)[C@H](O)[C@@H](C)/C=C(\C)[C@H](OC(N)=O)[C@@H](OC)/C=C\C=C(/C)C(=O)NC(=CC1=O)C2=O [17-AAG]
Subtype specificity: ERBB2AMP | Association of 17q12 (ERBB2) amplification with compound response: associated with sensitivity

Cc1[nH]c2ccccc2c1CCNCc1ccc(/C=C/C(=O)NO)cc1 [LBH589]
Subtype specificity: Luminal

O=c1[nH]c2ccccc2n1C1CCN(Cc2ccc(-c3nc4cc5[nH]cnc5cc4nc3-c3ccccc3)cc2)CC1 [Sigma AKT1-2 inhibitor]
Subtype specificity: Luminal | Subtype-preferential activity in breast cancer cell lines (in words): Luminal and ERBB2AMP cell lines preferentially respond

CCn1cc(-c2ccnc3[nH]c(-c4cccc(CN(C)C)c4)cc23)c(-c2ccc(NC(=O)N(C)C)cc2)n1 [GSK1070916]
Subtype specificity: Claudin-low | Molecular Subtype in which the compound shows Preferential Activity: Claudin-low; also recorded: Tumors with low or no 20q13 amplification | Association of 20q13 (STK15/AURKA) amplification with compound response: is associated with; also recorded: associated with resistance | Association of 20q13 (STK15/AURKA) amplification with compound response (listed as GSK.AUR1): less effective in tumors that have genomic DNA copy number amplifications at 20q13 | Subtype-preferential activity in breast cancer cell lines (in words): more active against basal and/or claudin-low cell lines | Subtype-preferential activity in breast cancer cell lines (in words) (listed as GSK.AUR1): preferentially active against Claudin-low cell lines

O=C(Nc1cc(Cl)cc2c1[nH]c1cnccc12)c1cccnc1 [PS1145]
Response of the cell line panel as a whole: almost none of the cell lines in the panel responded strongly

O=c1[nH]cc(F)c(=O)[nH]1 [5-FU, Fluorouracil]
Association of response with growth rate (doubling time): strong effects of both subtype and growth rate on response | Association of response with growth rate (doubling time) (listed as 5-florouracil): strong significance in the ANCOVA model for both class and doubling time; also recorded: decreases as doubling time increases | Association of response with growth rate (doubling time) (listed as Fluorouracil): active against cell lines with rapid growth rates; also recorded: active against cell lines that grow more quickly | Shift of mean sensitivity between luminal and basal subtypes (ANCOVA model, FIG. 4B): shifts by approximately one log | Molecular Subtype in which the compound shows Preferential Activity: KI67+ tumors | Subtype-preferential activity in breast cancer cell lines (in words) (listed as 5-florouracil): not significant in the subtype test alone | Subtype-preferential activity in breast cancer cell lines (in words) (listed as Fluoruracil): more effective against basal cell lines (both triple negative and claudin-low) than against luminal cell lines

CN(C)C/C=C/C(=O)Nc1cc2c(Nc3ccc(F)c(Cl)c3)ncnc2cc1O[C@H]1CCOC1 [BIBW 2992]
Subtype specificity: ERBB2AMP | Association of 17q12 (ERBB2) amplification with compound response: associated with sensitivity

O=C1c2ccccc2-[n+]2ccc3c([nH]c4ccccc43)c21 [Fascaplysin]
Subtype specificity: Luminal

CC(=O)O[C@@]12CO[C@@H]1C[C@H](O)[C@@]1(C)C(=O)[C@H](O)C3=C(C)[C@@H](OC(=O)[C@H](O)[C@@H](NC(=O)OC(C)(C)C)c4ccccc4)C[C@@](O)([C@@H](OC(=O)c4ccccc4)[C@H]21)C3(C)C [Docetaxel]
Subtype specificity: Basal/Claudin-low | Subtype-preferential activity in breast cancer cell lines (in words): preferential activity in basal or claudin-low cell lines
